These are literature values, as cited in patent US20090162416A1, “Polymer implants for timed release of drugs with particular emphasis on ovulation or spermiation of fish” (priority 2007, published 2009).

This data set concerns seasonable ripe gravid female catfish. To be noted: 0.45 mg/lb of body weight.

Non-standard residues stand in square brackets, D forms with d. pGlu = O=C1CC[C@@H](C(=O)O)N1 A value given as a limit tells only on which side of the number the result lay.

Take “-Glp-His-Trp-Ser-Tyr-Gly-Leu-Arg-Pro-ethylamide- ([pGlu]HWSYGLRP-NHEt) [LHRH, nine amino acid synthetic polypeptide used to promote ovulation in catfish]”: the “time to ovulation after single injection” value was ≤ 12 h.
